{"source": "patent US7553815B1", "about": "“Therapeutic use” (priority 1999, dated 2009)", "test_system": "normal breast epithelium", "assay": "Normal breast xenografts: proliferation (Ki67 LI) and apoptosis (AI) (Example 2)", "type": "in vivo, human", "note": "Marks after values point to notes of the source that are not given here."}
{"smiles": "COc1cc2ncnc(Nc3ccc(F)c(Cl)c3)c2cc1OCCCN1CCOCC1", "note": "[ZD1839, N-(3-chloro-4-fluorophenyl)-7-methoxy-6-(3-morpholinopropoxy)quinazolin-4-amine]", "values": [{"measurement": "Median LI/AI, Normal breast", "setting": "Day 21, ratio of cell turnover", "result": "3.9***"}, {"measurement": "Dose response of epithelial proliferation (Ki67 LI), FIG. 2", "setting": "normal breast, Day 28, 10-200 mg/kg", "result": "not in normal breast"}]}
